Assay results published in PMC12217462 (Antimicrobial Agents and Chemotherapy, 2025).
Values joined by “and” are separate entries in the source; they are usually repeats but may differ in a detail not shown here. Equal entries are not always repeated. Where two headings read alike, the source gives them in different places.

Experiments:
[1] = test system: Babesia duncani; conditions: cited from earlier work
[2] = test system: Babesia duncani; assay: Propidium iodide-based in vitro dose-response assay, B. duncani-infected red blood cells, 384-well plates; type: cell-based; conditions: for EC90: read-out: EC90 (95% CI)
Experimental: Frozen stocks of B. duncani were provided by the Ben Mamoun lab at Yale University. Culture maintenance was undertaken as described by Singh et al^18 with the following adaptations: Media, completed DMEM/F12 (cDMEM; 20% heat-inactivated fetal bovine serum (Sigma-Aldrich catalogue #12,306 C-500ML), 1 x HT media supplement (Sigma-Aldrich catalogue # H0137-10VL), 1 x L-glutamine (Gibco, catalogue # 25030–081), 1 x antibiotic-antimycotic (Gibco catalogue #15240–062), and 1 x gentamicin (Gibco catalogue #15710–072)), was changed every other day and cultures were kept in a modular incubator gassed with 2% O2, 5% CO2, 93% N2 at 37°C. Passage occurred once a week into fresh blood at 1%–2% parasitemia, 5% hematocrit, and fresh A + blood was obtained once a week from the University of Vermont Medical Center Blood Bank. Four days before the start of drug assay testing, a 10 mL, 5% hematocrit culture was infected to 2% parasitemia with Babesia duncani. One day before the start, the media was changed, and parasitemia was assessed by light microscopy examination of Giemsa-stained thin blood smears with a minimum of 500 red blood cells counted.
Fresh A + blood was washed three times, and a stock 10% hematocrit (HCT) solution of uninfected red cells in completed F12/DMEM media (cDMEM) was created. In a 96-well plate, a pellet from a vigorously growing (≥20% parasitemia) culture was used to create a 10% hematocrit starting well that was then serially diluted five times with the stock 10% hematocrit solution. 25 µL of each serial dilution was transferred to a white, clear-bottom 384-well plate (Falcon, catalog #353963) in triplicate before 25 µL of cDMEM was added to each well, followed by 25 µL of 0.6% Triton-X, 22.5 µM PI in phosphate-buffered solution. The 384-well plate was then shaken for 30 seconds, incubated at 37°C for 1 hour (in the dark), then moved to room temperature in the dark. After 24 hours, the plate was read using a Synergy H1 (BioTek, Winooski, VT) with excitation = 535 nm, emission = 615 nm, sensitivity = 150, and readings taken from the bottom of the wells. Blood smears were made from select undiluted starting wells and stained with Giemsa, and parasitemia was calculated manually from a minimum of 1,000 counted red blood cells. The experiment was repeated twice.
(§1) Prior to the removal of the culture(s) from the modular incubator, fresh A + blood was washed three times with PSG +and compounds (in DMSO stocks) to be tested were prepared in a 96-well plate by serial dilution in cDMEM. Once prepared, the culture(s) were removed from the modular incubator, collected, and washed once with 7 mL of cDMEM. A 10% hematocrit, 5% parasitemia stock in cDMEM was made, and 25 µL aliquoted into a 384-well plate with constant agitation, followed by 25 µL of compound dilution (quadruplicates). The positive growth control was given 25 µL of 0.5% dimethyl sulfoxide (DMSO) in cDMEM (final 0.25% DMSO), and the negative growth control was 25 µL of 50 µM WR99210 (0.5% DMSO) (final 25 µM WR99210, 0.25% DMSO). Plates were incubated as previously described, smears of the positive growth control were made, and the plates were read as previously described. Smears were stained by Giemsa, and a minimum of 1,000 RBCs were counted to determine parasitemia. Dose-response assays were repeated twice.
Pilot dose-response experiments were performed using WR99210 (a DHFR inhibitor with known effect on Babesia duncani), DMSO vehicle, and standard of care drugs atovaquone, clindamycin, quinine, and azithromycin ([20]).
The positive growth control was treated with 25 µL of 0.5% dimethyl sulfoxide (DMSO) in cDMEM (final 0.25% DMSO), and the negative growth control with 25 µL of 50 µM WR99210 (0.5% DMSO) (final 25 µM WR99210, 0.25% DMSO). The plate was incubated for 48 hours and then the plate was stained and read as previously described.

[3] = test system: Babesia duncani; assay: Bug Box single-concentration screen, PI assay in 384-well plates; type: cell-based; conditions: read-out: Inhibition in Bug Box screen (hit definition)
Experimental: as §1
The Bug Box is a collection of 40 compounds with known antimicrobial and/or bioactivity, which was provided by the Structural Genomics Consortium (SGC)-Toronto. The full list of compounds is available in the supplement. They were obtained in 10 mM aliquots and screened in 384-well plates at 1 µM and 5 µM dilutions with four technical replicates per dilution. Hits were defined as those compounds with at least 80% inhibition. Hits were validated by dose-response curves using commercially obtained compounds with verified purity. The only exception to this was in the verification of compound M7, which is a proprietary compound that could be obtained only from SGC-Toronto. Dose-response curves were created from two independent experiments, each with nine dilutions of the drug.

[4] = test system: HCT8 cells; assay: Cytotoxicity on confluent monolayer HCT8 cells (Promega CellTiter Aqueous One MTS assay); type: cell-based, human; conditions: 48 hours, highest final concentration 100 µM, two replicate experiments
Experimental: Human HCT8 cells were grown in tissue culture flasks until a confluent monolayer was achieved. […] Cells were incubated with the drug for 48 hours. Promega CellTiter Aqueous One Solution Cell Proliferation Assay (MTS) (PRG3580) was commercially obtained and used to ascertain cell viability, with […] measured using a Biotek microplate reader. Cells incubated in 0.5% DMSO served as a positive growth control and comparator arm.

[5] = test system: B. divergens; set-up: method as in earlier work; conditions: ref 35 (Vanheer et al.); cited from earlier work
[6] = Cytotoxicity on confluent monolayer HCT8 cells (Promega CellTiter Aqueous One MTS assay); type: cell-based; conditions: human HCT8 cells
[7] = set-up: method as in PMID 22553374; conditions: oral, 28-day, once-daily dosing study in humans; cited from earlier work
[8] = cited from earlier work
[9] = test system: malignant cells; set-up: method as in PMID 19344997; conditions: malignant cells treated; cited from earlier work
[10] = test system: normal cells; set-up: method as in PMID 19344997; conditions: cited from earlier work
[11] = test system: normal cell lines (human mammary and renal epithelial cells, among others); set-up: method as in PMID 19344997; conditions: cited from earlier work
[12] = test system: P. falciparum; set-up: method as in PMID 26199860, PMID 33541085; conditions: depending on the strain tested; cited from earlier work
[13] = test system: solid tumor cells; set-up: method as in PMID 19344997; conditions: cited from earlier work
[14] = test system: liquid tumor cell lines; set-up: method as in PMID 19344997; conditions: cited from earlier work
[15] = B. duncani in vitro, 48 hours of incubation, PI staining, read-out: EC50
[16] = Babesia duncani, Erythrocyte, 48 h, B. duncani in vitro, 48 hours of incubation, PI staining, read-out: EC50
[17] = Babesia duncani, Erythrocyte, 48 h, given in Fig 2 and Fig 3B, nine-point serial dilution, 48 hours, experiments repeated twice, read-out: EC50 (95% CI)
[18] = Babesia duncani, Erythrocyte, given in Fig 2 and Fig 3B, nine-point serial dilution, 48 hours, experiments repeated twice
[19] = screened at 5 µM, four technical replicates
[20] = Babesia duncani, Erythrocyte, Table 1, B. duncani, two replicate 9-point dilution experiments, combined data, read-out: EC50
[21] = Babesia duncani, Erythrocyte, B. duncani, read-out: In vitro IC90
[22] = Babesia duncani, Erythrocyte, conversion of B. duncani IC90, read-out: Free plasma concentration equivalent to IC90
[23] = 12 mg given orally (PO) thrice weekly

O=C1C(O)=C([C@H]2CC[C@H](c3ccc(Cl)cc3)CC2)C(=O)c2ccccc21 [Atovaquone]
EC50 ([1]; Babesia duncani, SYBR green assay, ref 9 (Abraham et al.)): 500 nM
EC50 ([1]; later Babesia duncani testing, same lab group): 72 nM
EC50 [2, 15]: 517 nM
EC50 [2, 16]: 518 nM
EC50 [2, 17]: 520 nM
EC90 [2, 18]: 780 nM
inhibition at 5 µM [3, 19]: > 80%

CC[C@H]1OC(=O)[C@H](C)[C@@H](O[C@H]2C[C@@](C)(OC)[C@@H](O)[C@H](C)O2)[C@H](C)[C@@H](O[C@@H]2O[C@H](C)C[C@H](N(C)C)[C@H]2O)[C@](C)(O)C[C@@H](C)CN(C)[C@H](C)[C@@H](O)[C@]1(C)O [Azithromycin]
EC50 [2, 16]: 12400 nM
EC50 [2, 17]: 12000 nM
EC90 [2, 18]: 28000 nM

O=C(/C=C/c1cccc(S(=O)(=O)Nc2ccccc2)c1)NO [Belinostat]
EC50 [2, 20]: 150 nM
TC50 HCT8 [4]: 90000 nM

CCC[C@@H]1C[C@@H](C(=O)N[C@@H]([C@H]2O[C@H](SC)[C@H](O)[C@@H](O)[C@H]2O)[C@H](C)Cl)N(C)C1 [Clindamycin]
EC50 [2, 17]: > 50000 nM
Inhibition of B. duncani growth (in words) ([2]; dose-response assay, 48 hours): appeared not to inhibit at all

O=C(/C=C/c1ccc(CN(CCO)CCc2c[nH]c3ccccc23)cc1)NO [Dacinostat]
EC50 [5]: 112 nM
EC50 [2, 20]: 23 nM
TC50 HCT8 [4]: 150000 nM

Nc1ccccc1NC(=O)c1ccc(CNC(=O)OCc2cccnc2)cc1 [Entinostat]
EC50 [2, 20]: 23000 nM
TC50 HCT8 [4]: 110000 nM

CCN(CC)Cc1ccc2cc(COC(=O)Nc3ccc(C(=O)NO)cc3)ccc2c1 [Givinostat]
EC50 [2, 20]: 220 nM
TC50 HCT8 [4]: 43000 nM

Nc1ccccc1NC(=O)c1ccc(CNc2nccc(-c3cccnc3)n2)cc1 [Mocetinostat]
EC50 [2, 20]: 2500 nM
TC50 HCT8 [4]: 56000 nM

O=C(NO)c1cnc(N2C[C@@H]3[C@H](C2)[C@H]3NCc2ccc3cc(F)ccc3n2)nc1 [Nanatinostat]
EC50 at 48 h [6]: 56200 nM
EC50 [2, 15]: 23.8 nM
EC50 [2, 16]: 23 nM
EC50 [2, 20]: 24 nM
IC90 [2, 21]: 64 nM
IC90 [2, 22]: ~0.025 µg/mL
Protocol defined maximum tolerated dose [7]: 80 mg
TC50 HCT8 [4]: 44000 nM
Cmax ([8]; single 20 mg oral dose): 186 ng/mL

Cc1[nH]c2ccccc2c1CCNCc1ccc(/C=C/C(=O)NO)cc1 [Panobinostat]
Increase in apoptotic signaling [9]: 10- to 11 fold
Caspase expression compared with control [10]: no increase
EC50 [5]: 27.2 nM
EC50 [2, 16]: 8 nM
EC50 [2, 20]: 8.4 nM
EC90 [2, 18]: 37 nM
LD90 [11]: > 5 µM
inhibition at 5 µM [3]: > 80%
EC50 [12]: 10 to 30 nM
LD90 [13]: less than 500 nM
TC50 HCT8 [4]: 130000 nM
LD90 [14]: less than 100 nM

CCCCc1nc2cc(/C=C/C(=O)NO)ccc2n1CCN(CC)CC [Pracinostat]
EC50 [2, 20]: 160 nM
TC50 HCT8 [4]: 450000 nM

C=C[C@H]1C[N@@]2CC[C@H]1C[C@H]2[C@H](O)c1ccnc2ccc(OC)cc12 [Quinine]
EC50 [2, 16]: 17500 nM
EC50 [2, 17]: 18000 nM
EC90 [2, 18]: 33000 nM

Cn1cc(CNCC2CCN(c3ncc(C(=O)NO)cn3)CC2)c2ccccc21 [Quisinostat]
EC50 [5]: 4.6 nM
EC50 [2, 20]: 4.5 nM
IC90 [2, 21]: 10 nM
IC90 [2, 22]: ~0.004 µg/mL
EC50 [12]: 5 to 7 nM
TC50 HCT8 [4]: 170000 nM
Area under the curve (AUC) [8, 23]: 18 ng*H/mL
Peak plasma concentration (Cmax) [8, 23]: 1.9 ng/mL

COc1cc(Cc2cnc(N)nc2N)cc(OC)c1OC [Trimethoprim]
EC50 [2, 16]: 2700 nM
EC90 [2, 18]: 4500 nM
inhibition at 5 µM [3, 19]: > 80%

O=C(CCCCCCC(=O)Nc1ccccc1)NO [Vorinostat]
TC50 HCT8 (µM) [4]: No toxicity

CC1(C)N=C(N)N=C(N)N1OCCCOc1cc(Cl)c(Cl)cc1Cl [WR99210]
EC50 [2, 15]: 8.3 nM and ~8.3 nM
EC90 ([2]; given in Fig 2 and Fig 3B, nine-point serial dilution, 48 hours, experiments repeated twice): 14 nM

c1ccc2c(c1)[I+]c1ccccc1-2 [diphenylene iodonium chloride, Diphenyleneiodonium chloride]
EC50 [2, 16]: 550 nM
EC90 [2, 18]: 1600 nM
inhibition at 5 µM [3, 19]: > 80%
